According to patent publication US10501450B2, “Anhydrate-free polymorphically pure micronized crystalline brexpiprazole di-hydrate for use in intramuscular injectable sustained release formulations” (HEXAL AG, priority 2016, dated 2019):
Where two headings read alike, the source gives them in different places. Each block holds one compound with its values, some of them ahead of it.

Assays:
[1] = Particle size distribution by laser diffraction (Malvern Mastersizer 3000, circulating aqueous suspension); assay type: physicochemical; details: volume distribution
Experimental: For the purpose of this invention, particle size distribution is determined as the percent volume at each particle size and measured by a laser diffraction method in the context of a circulating aqueous suspension. A Malvern Mastersizer 3000 laser diffraction analyzer equipped with a Hydro EV measurement cell was used. About 50 mg of sample were filled into a 15 ml glass test tube. The sample was wetted with two drops of Tween 80 and vortexed. Then the thoroughly wetted sample was dispersed in about 7 mL of UHQ-water by vortexing until the particles were dispersed. The suspension was treated for 7 minutes in an ultrasonification bath at RT (Elma S50H). The well dispersed suspension was then measured in water by adding a sample from the center of the test tube containing the well dispersed suspension to a water-filled dispersion unit prefilled with 70 mL of water. The sample in the 70 mL dispersion unit was kept under stirring at 2000 rpm. More sample from the test tube was added, until a targeted obscuration range of 10-25 percent was achieved. The Malvern Mastersizer was operated using the following parameters:
Measurement occurred after an optical alignment of the laser was done and after a background measurement was run. A measurement sequence consisted of eight individual measurements for which the mean value was represented as a histogram.
d90 as used herein means that 90% of the particles (based on volume) are smaller than or equal to the indicated size.
d50 as used herein means that 50% of the particles (based on volume) are smaller than or equal to the indicated size.
d10 as used herein means that 10% of the particles (based on volume) are smaller than or equal to the indicated size.
Particle size distribution was measured with a Malvern Mastersizer 3000 laser diffraction analyzer equipped with a Hydro EV measurement cell. About 50 mg of sample were given into a test tube. The sample was wetted with two drops of Tween 80 and dispersed in about 7 ml of water on a Vortexer. The suspension was treated for 7 minutes in a ultrasonification bath (Elma S50H). The well dispersed suspension was afterwards measured in water at a targeted obscuration range of 10-25 percent while circulating the aqueous suspension and stirring the suspension reservoir at 2000 rpm after a waiting period of three minutes. A fraunhofer optical model was utilized to deconvolute the sample scattering patterns to yield the resultant particle size distributions. Analysis model: General purpose/normal sensitivity. Measuring/background time: about 10 sec

[2] = Polymorphic stability of brexpiprazole dihydrate during wet ball milling, checked by PXRD; assay type: physicochemical; details: ball mill 25 Hz, 0.2 mL water, 10° C.
Experimental: The powder X-ray diffractogram was obtained with a PANalytical X'Pert PRO diffractometer equipped with a theta/theta coupled goniometer in transmission geometry, Cu-Kalpha1,2 radiation (wavelength 0.15419 nm) with a focusing mirror and a solid state PIXcel detector. The diffractogram was recorded at a tube voltage of 45 kV and a tube current of 40 mA, applying a stepsize of 0.013° 2-Theta with 40 s per step (255 channels) in the angular range of 2° to 40° 2-Theta at ambient conditions. A typical precision of the 2-Theta values is in the range of ±0.2° 2-Theta. […]
500 mg brexpiprazole dihydrate from comparative example 1 were milled in the presence of 0.2 mL water at 10° C. with a Retsch MM301 ball mill at 25 Hz for 5 min (1.5 ml jacket and 1 steel ball of 5 mm diameter). The obtained micronized crystalline material was analysed by PXRD and PSD. […] (Determined by the laser diffraction method in the context of a circulating aqueous suspension as the percent volume at each particle size and measured by a Malvern Mastersizer 3000 laser diffraction analyzer.)
500 mg brexpiprazole dihydrate from comparative example 1 were milled in the presence of 0.2 mL water at 10° C. with a Retsch MM301 ball mill at 25 Hz for 15 min (1.5 ml jacket and 1 steel ball of 5 mm diameter). The obtained micronized crystalline material was analysed by PXRD and PSD. […]

[3] = rats, intramuscular injection, 56 days after the injection, cited from earlier work
[4] = Solubility in water at 25° C.; assay type: physicochemical
Source text: The brexpiprazole dihydrate can then be added to an aqueous medium in which it is hardly soluble to form a suspension.

particle size distribution d10 [1]: 1.35 μm
particle size distribution d50 [1]: 8.24 μm
particle size distribution d90 [1]: 21 μm
SMILES: O=c1ccc2ccc(OCCCCN3CCN(c4cccc5sccc45)CC3)cc2[nH]1 [Example 1]
transformation of dihydrate to anhydrate form I during micronization (PXRD peaks at 6.8° and 17.4°) ([2]; 5 min): had not transformed to brexpiprazole anhydrate form I

SMILES: O=c1ccc2ccc(OCCCCN3CCN(c4cccc5sccc45)CC3)cc2[nH]1 [brexpiprazole dihydrate, 7-[4-[4-(1-Benzothiophen-4-yl)piperazin-1-yl]butoxy]quinolin-2(1H)-one dihydrate]
particle size distribution d90 ([1]; listed as Reference Example 1, dihydrate): above 25 μm
crystals detectable at the injection site ([3]; dihydrate): can still be detected
solubility ([4]; 25 °C): 10 µg/mL

solubility at 25° C. in water [4]: 18 µg/mL
SMILES: O=c1ccc2ccc(OCCCCN3CCN(c4cccc5sccc45)CC3)cc2[nH]1 [brexpiprazole anhydrate]
crystals detectable at the injection site [3]: no longer detectable

particle size distribution d10 [1]: 1.15 μm
particle size distribution d50 [1]: 7.04 μm
particle size distribution d90 [1]: 19 μm
SMILES: O=c1ccc2ccc(OCCCCN3CCN(c4cccc5sccc45)CC3)cc2[nH]1 [Example 2]
transformation of dihydrate to anhydrate form I during micronization (PXRD peaks at 6.8°, 10.0° and 17.4°) ([2]; 15 min): had not transformed to brexpiprazole anhydrate form I
